Test results published in US9259470B2, “Serine/threonine kinase inhibitors” (Array BioPharma Inc., priority 2012, dated 2016).

Tested on: PMA-stimulated P90RSK(Ser380) phosphorylation in HepG2 cells
Assay: Cellular P90RSK(Ser380) Phosphorylation Assay (Biological Example 2)
Format: cell-based
Details: read-out: Biological Example 2 IC50, 1.5 hours compound incubation, PMA 100 ng/mL 30 minutes, normalized to GAPDH, single assay or mean of multiple assays
Experimental: Inhibition of PMA-stimulated P90RSK(Ser380) phosphorylation was determined by the following in vitro cellular mechanistic assay, which comprises incubating cells with a compound for 1.5 hours and quantifying fluorescent pP90RSK(Ser380) signal on fixed cells and normalizing to GAPDH signal.
HepG2 cells were obtained from ATCC and grown in DMEM supplemented with 10% fetal bovine serum. Cells were plated in 96-well plates at 35,000 cells/well and allowed to attach overnight at 37° C./5% CO2. Diluted compounds were then added at a final concentration of 0.5% DMSO. After 1.5 hours compound incubation, cells were stimulated with the addition of phorbol 12-myristate 13-acetate (“PMA”) at a final concentration of 100 ng/mL; the PMA stimulation was a 30-minute incubation at 37° C./5% CO2. After the 30-minute PMA stimulation, cells were washed with phosphate buffered saline (“PBS”) and fixed in 3.7% formaldehyde in PBS at room temperature for 15-20 minutes. This was followed by another wash in PBS and then permeabilization in 100% MeOH at room temperature for 10-15 minutes. Following the permeabilization incubation, cells were washed in PBS/0.05% Tween-20, followed by a block in Odyssey blocking buffer (LI-COR Biosciences) for at least 1 hour. […] Cells were then washed and analyzed for fluorescence at both wavelengths using the Odyssey Infrared Imaging System (LI-COR Biosciences). […]

Cc1cc(Nc2nccc(-c3ccn([C@H](CO)c4ccc(Cl)c(F)c4)c(=O)c3)n2)n(C)n1 [Example 167, (S)-1-(1-(4-chloro-3-fluorophenyl)-2-hydroxyethyl)-4-(2-((1,3-dimethyl-1H-pyrazol-5-yl)amino)pyrimidin-4-yl)pyridin-2(1H)-one]
IC50: 0.1 µM
